Laboratory results reported in paper PMC9436915, “Tetrahedral framework nucleic acids‐based delivery promotes intracellular transfer of healing peptides and accelerates diabetic would healing” (Cell Proliferation, 2022).
Where a SMILES comes first, the peptide text is derived from it.

Tests used:
p-ERK1/2 = assay: Western blotting, ERK1/2 phosphorylation; format: cell-based; conditions: inhibitor plus p@tFNA treatment, n = 3
Experimental: (§1) HUVECs under diabetic microenvironment were induced by incubation with 200 μg/ml AGEs (Bioss, Beijing, China) for 24 h. Cells were then treated with peptides or p@FNA (125 nM) for subsequent experiments.
(§2) The expression of β‐actin, VEGFA, MMP‐9, ERK1/2 and p‐ERK1/2 was detected by western blotting. The total protein of the sample was extracted by whole cell lysis method. The target protein was separated by 10% SDS‐PAGE and transferred to PVDF membrane. The bands were blocked in 5% BSA for 1 h and then incubated with primary antibodies against β‐actin (1:5000, PMK058S, BioPM, Wuhan, China), VEGFA (ab214424, Abcam, Cambridge, UK), MMP‐9 (ab76003, Abcam, Cambridge, UK), ERK1/2 (1:1000, CST, #4370, MA) and p‐ERK1/2 (1:2000, CST, #4370, MA) overnight at 4°C. The next day, PVDF membranes were rewarmed and incubated with secondary antibodies for 1 h. Bands were washed three times with TBST. The final exposure was performed in a Bio‐Rad chemiluminometry.

HUVEC = assay: Tube formation assay on Matrigel; format: cell-based; conditions: inhibitor+p@tFNA group; n = 3
Experimental: as §1
The formation of blood vessel‐like structures in vitro was observed by tube formation assay. Cells were pre‐incubated with AGEs for 24 h and subsequently treated with peptide or p@FNA for another 24 h. Subsequently, 100 μl of HUVEC (1–1.5 × 10^5 cells/ml) were seeded on Matrigel (Corning, NY) in 96‐well plates. Images were taken after 6 h. Statistical analysis of tube formation was performed by Image J.

VEGFA = assay: Western blotting, VEGFA protein; format: cell-based; conditions: inhibitor plus p@tFNA treatment, n = 3
Experimental: as §1, §2

trypsin = assay: Enzyme stability of peptide with trypsin; format: in vitro ADME; conditions: 37 °C, during 1.5 h, UV 205 nm
Experimental: As to the enzyme stability of peptide, equal amount of peptide and p@FNA were treated with trypsin and incubated in 37 °C for 1.5, 3, and 6 h. The remaining amount of peptide was measured by UV spectrophotometer (205 nm). As to enzyme stability of tFNA, equal amount of tFNA and p@FNA were treated with DNase I for 1 min. After neutralization, samples were examined by 6%PAGE at 60 V for 80 min.

Compound	p-ERK1/2 expression after ERK1/2 inhibitor (p-ERK1/2) [fold]	Tube formation after ERK1/2 inhibition: branching intervals (HUVEC) [fold]	Tube formation after ERK1/2 inhibition: branching length (HUVEC) [fold]	Tube formation after ERK1/2 inhibition: junctions (HUVEC) [fold]	Tube formation after ERK1/2 inhibition: meshes (HUVEC) [fold]	Tube formation after ERK1/2 inhibition: nodes (HUVEC) [fold]	Tube formation after ERK1/2 inhibition: total length (HUVEC) [fold]	Tube formation after ERK1/2 inhibition: total mesh area (HUVEC) [fold]	VEGFA expression after ERK1/2 inhibitor (VEGFA) [fold]	Stability to trypsin (in words) (trypsin)
Cn1nccc1Nc1nccc(-c2cc3c(s2)C(C)(C)N(CCN2CCOCC2)C3=O)n1 [LY3214996]	0.69	0.49	0.25	0.19	0.13	0.20	0.35	0.02	0.59	–
C[C@@H](O)[C@H](NC(=O)[C@H](CCCNC(=N)N)NC(=O)CNC(=O)[C@H](CCC(=O)O)NC(=O)[C@@H](N)CCCNC(=N)N)C(=O)O [peptide] (H-REGRT-OH)	–	–	–	–	–	–	–	–	–	rapid decomposition
